Laboratory results taken from PubChem BioAssay (NCI).
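Interpolation was linear, between the two tested concentrations surrounding the appropriate level; five concentrations were tested over 48 hours in 96-well plates. GI50 is the concentration that inhibits growth by half. TGI denotes the concentration required for complete inhibition of growth.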

Columns and labels:
Experiment in all cases: NCI anticancer screen, dose series, 48 h
[1] = system: SK-MEL-2 melanoma
[2] = system: OVCAR-5 ovarian
[3] = system: 786-0 renal
[4] = system: SF-268 CNS
[5] = system: SK-MEL-5 melanoma
[6] = system: MDA-MB-231 breast
[7] = system: KM12 colon
[8] = system: MCF7 breast
[9] = system: EKVX NSCLC
[10] = system: CCRF-CEM leukemia
[11] = system: MDA-MB-435
[12] = system: SNB-19 CNS
[13] = system: SW-620 colon
[14] = system: UO-31 renal
[15] = system: NCI-H460 lung
[16] = system: MALME-3M melanoma
[17] = system: HCT-15 colon
[18] = system: CAKI-1 renal
[19] = system: MOLT-4 leukemia
[20] = system: UACC-62 melanoma
[21] = system: LOX IMVI melanoma
[22] = system: NCI/ADR-RES ovarian
[23] = system: NCI-H522 lung
[24] = system: OVCAR-8 ovarian
[25] = system: RPMI-8226 leukemia
[26] = system: T-47D breast
[27] = system: HL-60(TB) leukemia
[28] = system: NCI-H23 lung
[29] = system: ACHN renal
[30] = system: A549 NSCLC
[31] = system: SR leukemia
[32] = system: SF-539 CNS
[33] = system: HCC-2998 colon
[34] = system: K-562 leukemia
[35] = system: TK-10 renal
[36] = system: COLO 205 colon
[37] = system: SK-OV-3 ovarian
[38] = system: HS 578T breast
[39] = system: A498 renal
[40] = system: SF-295 CNS
[41] = system: HOP-92 NSCLC
[42] = system: SNB-75 CNS
[43] = system: OVCAR-4 ovarian
[44] = system: SN12C renal
[45] = system: M14 melanoma
[46] = system: RXF 393 renal
[47] = system: PC-3 prostate
[48] = system: BT-549 breast
[49] = system: HT29 colon
[50] = system: IGROV1 ovarian
[51] = system: HOP-62 NSCLC
[52] = system: U251 CNS
[53] = system: OVCAR-3 ovarian
[54] = system: SK-MEL-28 melanoma
[55] = system: UACC-257 melanoma
[56] = system: HCT-116 colon
[57] = system: DU-145 prostate

Clc1ccc(-c2nc3c(-c4ccccc4)nc(-c4ccccc4)cn3c2-c2ccc(Cl)cc2)cc1
GI50 [1]: > 100 µM | TGI [1]: > 100 µM | GI50 [2]: > 100 µM | TGI [2]: > 100 µM | GI50 [3]: > 100 µM | TGI [3]: > 100 µM | GI50 [4]: > 100 µM | TGI [4]: > 100 µM | GI50 [5]: > 100 µM | TGI [5]: > 100 µM | GI50 [6]: > 100 µM | TGI [6]: > 100 µM | GI50 [7]: > 100 µM | TGI [7]: > 100 µM | GI50 [8]: > 100 µM | TGI [8]: > 100 µM | GI50 [9]: > 100 µM | TGI [9]: > 100 µM | GI50 [10]: > 100 µM | TGI [10]: > 100 µM | GI50 [11]: > 100 µM | TGI [11]: > 100 µM | GI50 [12]: > 100 µM | TGI [12]: > 100 µM | GI50 [13]: > 100 µM | TGI [13]: > 100 µM | GI50 [14]: > 100 µM | TGI [14]: > 100 µM | GI50 [15]: > 100 µM | TGI [15]: > 100 µM | GI50 [16]: > 100 µM | TGI [16]: > 100 µM | GI50 [17]: > 100 µM | TGI [17]: > 100 µM | GI50 [18]: > 100 µM | TGI [18]: > 100 µM | GI50 [19]: > 100 µM | TGI [19]: > 100 µM | GI50 [20]: > 100 µM | TGI [20]: > 100 µM | GI50 [21]: > 100 µM | TGI [21]: > 100 µM | GI50 [22]: > 100 µM | TGI [22]: > 100 µM | GI50 [23]: > 100 µM | TGI [23]: > 100 µM | GI50 [24]: > 100 µM | TGI [24]: > 100 µM | GI50 [25]: > 100 µM | TGI [25]: > 100 µM | GI50 [26]: > 100 µM | TGI [26]: > 100 µM | GI50 [27]: > 100 µM | TGI [27]: > 100 µM | GI50 [28]: > 100 µM | TGI [28]: > 100 µM | GI50 [29]: > 100 µM | TGI [29]: > 100 µM | GI50 [30]: > 100 µM | TGI [30]: > 100 µM | GI50 [31]: > 100 µM | TGI [31]: > 100 µM | GI50 [32]: > 100 µM | TGI [32]: > 100 µM | GI50 [33]: > 100 µM | TGI [33]: > 100 µM | GI50 [34]: > 100 µM | TGI [34]: > 100 µM | GI50 [35]: > 100 µM | TGI [35]: > 100 µM | GI50 [36]: > 100 µM | TGI [36]: > 100 µM | GI50 [37]: > 100 µM | TGI [37]: > 100 µM | GI50 [38]: > 100 µM | TGI [38]: > 100 µM | GI50 [39]: > 100 µM | TGI [39]: > 100 µM | GI50 [40]: > 100 µM | TGI [40]: > 100 µM | GI50 [41]: > 100 µM | TGI [41]: > 100 µM | GI50 [42]: 91.4 µM | TGI [42]: > 100 µM | GI50 [43]: > 100 µM | TGI [43]: > 100 µM | GI50 [44]: > 100 µM | TGI [44]: > 100 µM | GI50 [45]: > 100 µM | TGI [45]: > 100 µM | GI50 [46]: > 100 µM | TGI [46]: > 100 µM | GI50 [47]: > 100 µM | TGI [47]: > 100 µM | GI50 [48]: > 100 µM | TGI [48]: > 100 µM | GI50 [49]: > 100 µM | TGI [49]: > 100 µM | GI50 [50]: > 100 µM | TGI [50]: > 100 µM | GI50 [51]: > 100 µM | TGI [51]: > 100 µM | GI50 [52]: > 100 µM | TGI [52]: > 100 µM | GI50 [53]: > 100 µM | TGI [53]: > 100 µM | GI50 [54]: > 100 µM | TGI [54]: > 100 µM | GI50 [55]: > 100 µM | TGI [55]: > 100 µM | GI50 [56]: > 100 µM | TGI [56]: > 100 µM | GI50 [57]: > 100 µM | TGI [57]: > 100 µM
